Experimental data: article PMC6576746, “Rational discovery of dual-indication multi-target PDE/Kinase inhibitor for precision anti-cancer therapy using structural systems pharmacology” (PLoS Computational Biology, 2019)

Legend:
Assay in all cases: biochemical
Set-up in all cases: DiscoverX KinomeScan competition binding assay across human kinases; per cent of control at 10 and 100 uM
CSK = CSK (Homo sapiens, UniProt P41240); settings: competition binding, % of control; read-out: Percent Control (100 uM Levosimendan)
Summary of the method: (§1)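 KinomeScan competition binding was run across a human kinase panel at 10 μM and 100 μM levosimendan. Results are %control = (test − positive control)/(negative control − positive control) × 100.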

DDR1 = DDR1 (Homo sapiens, UniProt Q08345); settings: competition binding, % of control; read-out: Percent Control (100 uM Levosimendan)
Summary of the method: as §1

FGFR3 = FGFR3 (Homo sapiens, UniProt P22607); settings: competition binding, % of control; read-out: Percent Control (100 uM Levosimendan)
Summary of the method: as §1

FGR = FGR (Homo sapiens, UniProt P09769); settings: competition binding, % of control
FGR, sequence (P09769 whole entry): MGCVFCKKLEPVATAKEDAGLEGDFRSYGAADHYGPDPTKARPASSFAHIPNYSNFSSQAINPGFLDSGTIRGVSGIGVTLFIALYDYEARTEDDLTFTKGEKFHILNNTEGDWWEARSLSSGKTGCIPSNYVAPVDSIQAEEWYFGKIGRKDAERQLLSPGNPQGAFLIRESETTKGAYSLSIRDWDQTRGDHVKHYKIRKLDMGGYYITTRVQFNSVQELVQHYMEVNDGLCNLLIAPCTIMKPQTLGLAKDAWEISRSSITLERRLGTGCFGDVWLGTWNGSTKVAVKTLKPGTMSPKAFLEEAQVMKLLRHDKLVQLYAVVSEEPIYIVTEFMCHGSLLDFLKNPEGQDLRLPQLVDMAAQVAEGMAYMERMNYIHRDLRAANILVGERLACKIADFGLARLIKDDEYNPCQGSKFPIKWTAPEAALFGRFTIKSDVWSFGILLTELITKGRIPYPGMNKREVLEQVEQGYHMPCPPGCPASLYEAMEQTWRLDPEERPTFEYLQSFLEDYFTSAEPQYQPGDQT
Summary of the method: as §1

GRK3 = GRK3 (Homo sapiens, UniProt P35626); settings: competition binding, % of control; read-out: Percent Control (100 uM Levosimendan)
Summary of the method: as §1

[1] = target: T1, JAK1(JH1domain-catalytic) (Homo sapiens, UniProt P23458); settings: competition binding, % of control; read-out: Percent Control (100 uM Levosimendan)
T1 construct: JH1domain-catalytic
Summary of the method: as §1

MEK4 = target: T2, MEK4 (Homo sapiens, UniProt P45985); settings: competition binding, % of control; read-out: Percent Control (100 uM Levosimendan)
T2 construct: gene MAP2K4
Summary of the method: as §1

MET(M1250T) = MET(M1250T) (Homo sapiens, UniProt P08581, M1250T); settings: competition binding, % of control; read-out: Percent Control (100 uM Levosimendan)
MET(M1250T), sequence (P08581 whole entry M1250T): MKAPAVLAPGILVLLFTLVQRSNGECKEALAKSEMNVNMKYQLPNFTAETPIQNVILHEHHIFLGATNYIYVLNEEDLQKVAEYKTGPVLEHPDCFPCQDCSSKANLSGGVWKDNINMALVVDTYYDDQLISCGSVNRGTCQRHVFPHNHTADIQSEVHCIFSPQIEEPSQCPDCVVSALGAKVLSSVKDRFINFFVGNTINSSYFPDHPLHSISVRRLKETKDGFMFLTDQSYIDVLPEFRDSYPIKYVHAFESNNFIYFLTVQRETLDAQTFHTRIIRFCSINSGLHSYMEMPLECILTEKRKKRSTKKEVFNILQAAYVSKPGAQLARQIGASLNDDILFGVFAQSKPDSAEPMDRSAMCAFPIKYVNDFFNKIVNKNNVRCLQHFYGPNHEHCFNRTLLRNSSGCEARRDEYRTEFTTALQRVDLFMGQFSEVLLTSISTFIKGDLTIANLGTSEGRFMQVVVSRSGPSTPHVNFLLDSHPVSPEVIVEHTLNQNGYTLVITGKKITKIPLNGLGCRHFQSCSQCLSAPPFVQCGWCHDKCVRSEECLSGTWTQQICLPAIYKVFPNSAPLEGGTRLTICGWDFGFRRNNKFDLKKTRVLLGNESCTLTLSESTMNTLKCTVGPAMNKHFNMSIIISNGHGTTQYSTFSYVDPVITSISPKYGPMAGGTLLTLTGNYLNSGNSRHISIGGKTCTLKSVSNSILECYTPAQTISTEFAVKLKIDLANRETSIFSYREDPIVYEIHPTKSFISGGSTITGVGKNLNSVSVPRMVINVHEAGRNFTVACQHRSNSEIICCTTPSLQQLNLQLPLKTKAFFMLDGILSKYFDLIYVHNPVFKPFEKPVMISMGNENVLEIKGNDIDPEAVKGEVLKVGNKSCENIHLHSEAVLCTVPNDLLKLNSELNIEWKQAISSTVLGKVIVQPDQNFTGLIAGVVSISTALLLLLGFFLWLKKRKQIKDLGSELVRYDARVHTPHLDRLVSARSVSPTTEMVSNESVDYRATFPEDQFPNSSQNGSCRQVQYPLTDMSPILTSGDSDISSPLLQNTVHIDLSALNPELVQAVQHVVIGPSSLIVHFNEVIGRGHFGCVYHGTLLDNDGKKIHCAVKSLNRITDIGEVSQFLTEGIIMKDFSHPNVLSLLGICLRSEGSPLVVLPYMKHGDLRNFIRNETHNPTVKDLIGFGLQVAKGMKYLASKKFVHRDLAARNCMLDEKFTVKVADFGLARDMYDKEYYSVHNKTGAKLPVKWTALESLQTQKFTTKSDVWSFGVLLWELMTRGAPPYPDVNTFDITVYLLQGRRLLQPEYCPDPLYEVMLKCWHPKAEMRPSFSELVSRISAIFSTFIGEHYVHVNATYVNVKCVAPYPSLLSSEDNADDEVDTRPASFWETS
Summary of the method: as §1

MKK7 = target: T3, MKK7 (Homo sapiens, UniProt O14733); settings: competition binding, % of control; read-out: Percent Control (100 uM Levosimendan)
T3 construct: gene MAP2K7
T3 sequence (O14733 whole entry): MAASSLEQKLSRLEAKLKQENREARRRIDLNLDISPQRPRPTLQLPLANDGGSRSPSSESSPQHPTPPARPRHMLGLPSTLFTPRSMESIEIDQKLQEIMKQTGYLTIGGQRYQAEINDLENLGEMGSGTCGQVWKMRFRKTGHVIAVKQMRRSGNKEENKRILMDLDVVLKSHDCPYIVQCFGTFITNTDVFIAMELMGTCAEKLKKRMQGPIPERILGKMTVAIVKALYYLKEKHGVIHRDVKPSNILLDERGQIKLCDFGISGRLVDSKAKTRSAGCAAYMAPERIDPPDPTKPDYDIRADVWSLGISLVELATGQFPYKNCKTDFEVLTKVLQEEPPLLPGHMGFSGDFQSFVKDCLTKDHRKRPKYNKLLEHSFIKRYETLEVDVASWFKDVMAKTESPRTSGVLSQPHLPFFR
Summary of the method: as §1

NEK2 = NEK2 (Homo sapiens, UniProt P51955); settings: competition binding, % of control; read-out: Percent Control (100 uM Levosimendan)
NEK2, sequence (P51955 whole entry): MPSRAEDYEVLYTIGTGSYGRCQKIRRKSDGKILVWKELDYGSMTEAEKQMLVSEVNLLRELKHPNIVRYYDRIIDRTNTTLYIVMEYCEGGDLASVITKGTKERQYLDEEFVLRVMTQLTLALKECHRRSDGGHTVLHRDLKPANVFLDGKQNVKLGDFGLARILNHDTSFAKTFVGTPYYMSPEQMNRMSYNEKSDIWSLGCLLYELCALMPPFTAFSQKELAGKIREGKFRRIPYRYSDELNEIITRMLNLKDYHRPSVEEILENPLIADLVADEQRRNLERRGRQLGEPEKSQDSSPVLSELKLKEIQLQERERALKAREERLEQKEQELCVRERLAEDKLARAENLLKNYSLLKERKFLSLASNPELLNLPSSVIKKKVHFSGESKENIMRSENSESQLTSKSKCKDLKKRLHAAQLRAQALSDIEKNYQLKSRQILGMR
Summary of the method: as §1

NEK6 = NEK6 (Homo sapiens, UniProt Q9HC98); settings: competition binding, % of control; read-out: Percent Control (100 uM Levosimendan)
Summary of the method: as §1

PIK3CG = PIK3CG (Homo sapiens, UniProt P48736); settings: competition binding, % of control; read-out: Percent Control (100 uM Levosimendan)
Summary of the method: as §1

PIM3 = PIM3 (Homo sapiens, UniProt Q86V86); settings: competition binding, % of control
Summary of the method: as §1

PRKCE = PRKCE (Homo sapiens, UniProt Q02156); settings: competition binding, % of control; read-out: Percent Control (100 uM Levosimendan)
Summary of the method: as §1

SGK3 = SGK3 (Homo sapiens, UniProt Q96BR1); settings: competition binding, % of control; read-out: Percent Control (100 uM Levosimendan)
Summary of the method: as §1

TLK2 = TLK2 (Homo sapiens, UniProt Q86UE8); settings: competition binding, % of control; read-out: Percent Control (100 uM Levosimendan)
Summary of the method: as §1

TSSK3 = TSSK3 (Homo sapiens, UniProt Q96PN8); settings: competition binding, % of control; read-out: Percent Control (100 uM Levosimendan)
TSSK3, sequence (Q96PN8 whole entry): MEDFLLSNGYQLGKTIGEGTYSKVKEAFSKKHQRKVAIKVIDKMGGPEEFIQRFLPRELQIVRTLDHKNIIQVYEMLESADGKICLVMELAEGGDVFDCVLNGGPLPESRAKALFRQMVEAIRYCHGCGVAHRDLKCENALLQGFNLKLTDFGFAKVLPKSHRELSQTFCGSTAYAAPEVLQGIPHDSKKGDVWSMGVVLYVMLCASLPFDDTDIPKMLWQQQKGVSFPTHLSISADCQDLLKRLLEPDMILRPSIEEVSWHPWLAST
Summary of the method: as §1

WNK4 = WNK4 (Homo sapiens, UniProt Q96J92); settings: competition binding, % of control; read-out: Percent Control (100 uM Levosimendan)
WNK4, sequence (Q96J92 whole entry): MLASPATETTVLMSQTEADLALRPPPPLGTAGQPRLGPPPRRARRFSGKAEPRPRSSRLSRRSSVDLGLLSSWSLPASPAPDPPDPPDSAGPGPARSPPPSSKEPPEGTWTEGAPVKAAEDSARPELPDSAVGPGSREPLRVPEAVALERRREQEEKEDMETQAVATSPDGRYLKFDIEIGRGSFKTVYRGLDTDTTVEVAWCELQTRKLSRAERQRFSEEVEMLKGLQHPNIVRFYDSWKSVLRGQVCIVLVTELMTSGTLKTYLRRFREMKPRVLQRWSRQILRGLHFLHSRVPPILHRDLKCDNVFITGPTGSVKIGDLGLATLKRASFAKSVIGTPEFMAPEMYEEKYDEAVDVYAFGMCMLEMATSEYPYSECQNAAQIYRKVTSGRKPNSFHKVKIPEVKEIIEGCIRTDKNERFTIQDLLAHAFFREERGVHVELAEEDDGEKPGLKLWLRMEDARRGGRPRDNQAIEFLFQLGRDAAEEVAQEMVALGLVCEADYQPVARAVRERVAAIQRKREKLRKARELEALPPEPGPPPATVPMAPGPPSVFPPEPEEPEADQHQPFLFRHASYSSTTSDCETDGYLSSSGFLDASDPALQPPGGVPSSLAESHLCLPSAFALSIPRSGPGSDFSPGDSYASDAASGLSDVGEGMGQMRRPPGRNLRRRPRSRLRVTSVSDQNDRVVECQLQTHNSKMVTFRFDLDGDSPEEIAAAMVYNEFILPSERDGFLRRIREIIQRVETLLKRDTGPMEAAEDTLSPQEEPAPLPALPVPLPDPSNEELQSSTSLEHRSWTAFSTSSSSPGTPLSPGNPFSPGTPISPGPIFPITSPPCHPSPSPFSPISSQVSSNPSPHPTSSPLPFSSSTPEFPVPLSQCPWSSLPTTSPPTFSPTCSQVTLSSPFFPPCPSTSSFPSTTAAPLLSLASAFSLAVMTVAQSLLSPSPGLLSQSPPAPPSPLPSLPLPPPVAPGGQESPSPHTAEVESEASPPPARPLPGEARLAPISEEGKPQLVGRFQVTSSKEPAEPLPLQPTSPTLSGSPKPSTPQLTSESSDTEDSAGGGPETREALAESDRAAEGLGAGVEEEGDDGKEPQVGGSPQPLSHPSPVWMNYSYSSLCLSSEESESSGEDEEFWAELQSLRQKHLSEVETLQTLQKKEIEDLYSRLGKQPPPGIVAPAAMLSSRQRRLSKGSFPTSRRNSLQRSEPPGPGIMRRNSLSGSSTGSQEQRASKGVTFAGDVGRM
Summary of the method: as §1

YSK1 = target: T4, YSK1 (Homo sapiens, UniProt O00506); settings: competition binding, % of control; read-out: Percent Control (100 uM Levosimendan)
T4 construct: gene STK25
T4 sequence (O00506 whole entry): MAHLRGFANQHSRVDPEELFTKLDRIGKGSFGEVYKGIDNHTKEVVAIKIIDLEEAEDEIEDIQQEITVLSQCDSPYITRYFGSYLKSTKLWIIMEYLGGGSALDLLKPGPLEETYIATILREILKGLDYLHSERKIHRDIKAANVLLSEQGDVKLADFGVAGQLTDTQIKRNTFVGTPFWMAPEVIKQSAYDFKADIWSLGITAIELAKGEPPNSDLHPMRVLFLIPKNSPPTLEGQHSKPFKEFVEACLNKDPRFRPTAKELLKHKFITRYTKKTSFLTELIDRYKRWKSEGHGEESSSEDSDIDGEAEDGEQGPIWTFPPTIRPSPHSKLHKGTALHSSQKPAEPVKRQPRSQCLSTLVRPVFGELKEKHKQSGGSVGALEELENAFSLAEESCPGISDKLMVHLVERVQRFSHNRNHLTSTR
Summary of the method: as §1

[2] = read-out: Percent Control (10 uM Levosimendan)
[3] = read-out: Percent Control (100 uM Levosimendan)

remaining binding at 100 µM (CSK): 76%
remaining binding at 100 µM (DDR1): 84%
remaining binding at 100 µM (FGFR3): 71%
remaining binding at 10 µM (FGR; [2]): 100%
remaining binding at 100 µM (FGR; [3]): 49%
remaining binding at 100 µM (GRK3): 100%
remaining binding at 100 µM [1]: 100%
remaining binding at 100 µM (MEK4): 92%
remaining binding at 100 µM (MET(M1250T)): 91%
remaining binding at 100 µM (MKK7): 100%
remaining binding at 100 µM (NEK2): 96%
remaining binding at 100 µM (NEK6): 71%
remaining binding at 100 µM (PIK3CG): 80%
remaining binding at 10 µM (PIM3; [2]): 75%
remaining binding at 100 µM (PIM3; [3]): 17%
remaining binding at 100 µM (PRKCE): 100%
remaining binding at 100 µM (SGK3): 92%
remaining binding at 100 µM (TLK2): 97%
remaining binding at 100 µM (TSSK3): 100%
remaining binding at 100 µM (WNK4): 95%
remaining binding at 100 µM (YSK1): 100%
Structure (SMILES): C[C@@H]1CC(=O)NN=C1c1ccc(NN=C(C#N)C#N)cc1 [levosimendan]
